# Test results as given in the METLIN SMRT retention time set (Domingo-Almenara et al. 2019).
# Experiment: gradient 5% acetonitrile 3 min, to 50% in 2 min, to 85% in 15 min, held 3 min, 100 µL/min
# Details: column: Zorbax Extend-C18 2.1 x 50 mm; eluents: water / acetonitrile, 0.1% formic acid
# In short: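 A Zorbax Extend-C18 column (2.1 × 50 mm, 1.8 μm) run at 100 μL/min with water and acetonitrile, both containing 0.1% formic acid, separated mixtures of ~100 pure standards. The HPLC was coupled to a quadrupole time-of-flight mass spectrometer operated in positive and negative ionization mode, with dead and dwell volumes of 40 μL and 900 μL. Each retention time was taken from a computationally picked adduct peak that was then manually inspected.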
row,Structure (SMILES),RP-LC retention time [s]
1,Cc1cc(C)c(S(=O)(=O)N2CCc3c(c(-c4nnc(-c5ccccc5F)o4)nn3C)C2)cc1C,1070
2,COCCNC(=O)N1CCCN(C2=NS(=O)(=O)C(c3ccc(C)c(C)c3)=C2C)CC1,738
3,COc1ccc2nc(-c3ccc(NS(=O)(=O)c4ccccc4C(F)(F)F)cc3)cn2n1,792
4,O=C(NCC(c1ccco1)N1CCOCC1)c1cc(-c2ccc3c(c2)CCCC3)on1 (centres undefined),827
5,Cc1noc(C2CN(CC(=O)N3CCN(c4ccc(Cl)cc4)CC3)C2)n1,590
6,O=[N+]([O-])c1c(NCCCO)cc(Nc2ccc(F)cc2)c2nonc12,676
7,CCn1nnc(NCc2ccc(-c3cccc(Cl)c3)o2)n1,1010
8,Cc1ccn2cc(-c3ccc(NC(=O)Nc4cccc(Cl)c4)cc3)nc2n1,692
9,CC(=O)N1CCC(c2nc(C)c(C(=O)O)s2)CC1,588
10,COc1ccc(-c2cn3cccnc3n2)cc1NC(=O)c1ccc(OC)c(OC)c1,641
11,Cc1[nH]c(C(=O)N2CCC(CC(=O)N(C)Cc3ccco3)CC2)c(C)c1C(=O)OC(C)C,798
12,COC(=O)c1sccc1NC(=O)N1CCCn2nc(-c3cccs3)cc2C1,984
13,Cc1c(C(=O)N(C)C)cnn1-c1cc(-c2nc(C(C)(C)C)no2)ccn1,922
14,CS(=O)(=O)Nc1ccc(N2CCCCS2(=O)=O)cc1,615
15,COc1ccc(CCNC(=O)CSc2c[nH]c3ccccc23)cc1OC,717
16,Clc1cccc(-c2nnc(-c3nc(NC4CCCC4)c4ccccc4n3)o2)c1,1170
17,O=C(Cn1cnc2ccccc2c1=O)N1CCOCC1,590
18,Cc1nc(C(=O)NC2CCCCC2)c(C)o1,767
19,CC(C)Cn1cc(S(=O)(=O)NC2CCCCCC2)c2cccnc21,1060
20,CCn1ccc(C(=O)NC2CCN(C3=NS(=O)(=O)C(c4ccc(F)cc4)=C3C)CC2)n1,777

row,Structure (SMILES),RP-LC retention time [s]
1,COC(=O)C1=CN(c2cccc(Br)c2)c2cc(F)ccc2S1(=O)=O,903
2,Cc1ccn2cc(C(=O)NCc3ccccc3Cl)nc2c1,675
3,O=C(Nc1ccc(SCc2nnc(-c3ccccc3)o2)cc1)c1ccc(Br)o1,1010
4,CCN(Cc1c(C)nn(CC)c1C)C(=O)Cn1nc2n(c1=O)CCC(N)CC2 (centres undefined),551
5,CCCCN(C)C(=O)C1CCCCc2nnc(C(C)C)n21 (centres undefined),666
6,COc1ccc(NC(=O)Nc2nccn(-c3ccc(Cl)cc3)c2=O)cc1OC,854
7,O=C(C1=CN(c2cccc(Cl)c2)c2cc(F)ccc2S1(=O)=O)N1CCOCC1,811
8,Cc1nc2cc3c(cc2n1CC(=O)NCc1ccc(F)cc1)OCCO3,636
9,CCn1c(C(=O)NCCCN2CCCC2=O)c(N2CCCC2=O)c2cc(F)ccc21,700
10,COC(=O)c1cc(C(=O)OC)cc(-n2ccc3nc(C)c(C(=O)OC)cc3c2=O)c1,844
11,CN(CCc1noc(COc2ccccc2F)n1)C(=O)Nc1ccc(F)c(Cl)c1,966
12,COc1ccc(N2C=C(C#N)S(=O)(=O)c3ccc(F)cc32)cc1Cl,948
13,O=Cc1cn(Cc2ccc(Cl)cc2)c2ccccc12,968
14,Cc1ccc(-c2cc3c(=O)n(Cc4noc(CN5CCCC5)n4)ccn3n2)cc1,654
15,Cc1cc(N2CCN(C(=O)Nc3cccc(C)c3C)CC2)nc(N2CCOCC2)n1,633
16,COc1ccc(OC)c(-c2cn3ccn(-c4ccc(Br)cc4)c(=O)c3n2)c1,912
17,Cc1cccc(NC(=O)N2CCC(CN3CCCC(C)C3)CC2)c1C (centres undefined),620
18,Cc1ccc(CNC(=O)c2ccc3ccnc(N4CCN(c5ccc(Cl)cc5)CC4)c3c2)o1,887
19,CCc1ccc(N2C=C(C(=O)N3CCOCC3)S(=O)(=O)c3ccc(F)cc32)cc1,873
20,CCOC(=O)c1cccc(N2C=C(C#N)S(=O)(=O)c3ccc(F)cc32)c1,939

row,Structure (SMILES),RP-LC retention time [s]
1,CC1(C(=O)NC2CCCCCCC2)CN(S(C)(=O)=O)CC(=O)N1Cc1ccc(Cl)cc1 (centres undefined),993
2,CC(C)(C)c1cc(C(=O)NC2CCCC2)nc2ccnn12,1150
3,CC1CCc2onc(C(=O)N3CCN(c4ccccc4)CC3)c2C1 (centres undefined),1020
4,COc1ccc([N+](=O)[O-])cc1NC(=O)N(C)Cc1ccco1,922
5,O=C(Nc1ccc(F)c(F)c1)c1cccn1Cc1noc(-c2ccccc2)n1,1100
6,CCOC(=O)c1ccccc1NC(=O)Cn1c(=O)n(-c2cccc(C)c2)c(=O)c2c1cc(C)n2C,966
7,CC(C)CN1C(=O)c2cccn2CC1CNC(=O)c1cccs1 (centres undefined),715
8,Cc1nc(N2CCOCC2)c2c(C(=O)Nc3ccc(Br)cc3C)c(C)oc2n1,909
9,Cc1nn2c(S(=O)(=O)N3CCC4(CC3)OCCO4)c(C)nc2s1,692
10,O=C(Nc1cnc(-c2ccc(C(F)(F)F)cc2)nc1)C1CCOC1 (centres undefined),888
11,O=C(NC1CCCC1)c1nc(C(=O)N2CCN(c3cccc(Cl)c3)CC2)cs1,1020
12,COc1ccc(Cl)cc1NC(=O)c1cc(C(C)C)n2nccc2n1,1310
13,CC1Oc2ccc(-c3csc(NC(=O)C4CC4)n3)cc2N(C)C1=O (centres undefined),787
14,CC1=C(c2cccc(Br)c2)S(=O)(=O)N=C1N1CCN(c2ccccn2)CC1,686
15,O=C(Cn1nc2c(N3CCSCC3)nccn2c1=O)Nc1ccc2c(c1)OCCO2,737
16,COC(=O)c1ccc(-c2nc3cnccn3c2Nc2cc(C)cc(C)c2)cc1,978
17,OC[C@H]1OC(n2cnc3c(N[C@H]4CCC[C@@H]4O)ncnc32)[C@H](O)[C@@H]1O (some centres undefined),551
18,c1ccc(-c2nc(-c3cnccn3)no2)c(OC2CNC2)c1,583
19,Cc1ccc(-c2nnc(Cc3nc(-c4ccncc4)no3)o2)cc1F,814
20,CCn1ccc(C(=O)N2CCC3(CC2)NCc2ccccc2-n2ccnc23)n1,579

# Results, then the compound that gave them:
row,RP-LC retention time [s],Structure (SMILES)
1,1080,COc1ccccc1NC(=O)N1CCCC1c1nc(-c2cccc(C)c2)no1 (centres undefined)
2,702,COc1cc(NC(=O)N2CC3CCCN3c3ccccc32)cc(OC)c1OC (centres undefined)
3,849,CSc1cccc(NC(=O)C2CCN(C(=O)c3ncn4c3COC(c3ccc(F)cc3)C4)CC2)c1 (centres undefined)
4,1050,COc1ccc(C2(C(=O)N3CCC(Cc4nc(-c5ccccc5)no4)CC3)CC2)cc1
5,1010,CCOc1cccc(-c2noc(Cn3cnc4c(oc5ccccc54)c3=O)n2)c1
6,661,CCN(CCCNC(=O)c1nnc(-c2ccc(S(=O)(=O)N3CCCC3)cc2)o1)Cc1ccccc1
7,765,CCOC(=O)Cn1nc2ccc(S(=O)(=O)N3CCSCC3)cn2c1=O
8,621,O=C1CCCc2cc(S(=O)(=O)NCCN3CCN(c4ccccc4)CC3)ccc2N1
9,868,O=C(NCCc1cccs1)c1cc2n(n1)CCCN(Cc1ccc(F)cc1)C2=O
10,895,Cc1cc(C2CCCN2C(=O)Nc2ccccc2C(F)(F)F)no1 (centres undefined)
11,795,Cc1nnc(N2CCCC(C(=O)N(C)Cc3ccccc3)C2)c2nn(-c3ccc(Cl)cc3)c(C)c12 (centres undefined)
12,558,O=S(=O)(NCC#CCN1CCc2ccccc2C1)c1cccs1
13,809,Cc1c(C)n(-c2ccccc2)c2ncn(CC(=O)NCc3ccco3)c(=O)c12
14,594,O=C(C1CCN(S(=O)(=O)c2ccc(-c3ccn[nH]3)o2)CC1)N1CCN(c2ccccn2)CC1
15,727,CCC(C(=O)N1CCN(c2ccc3nnc(-c4ccco4)n3n2)CC1)c1ccccc1 (centres undefined)
16,831,Cc1noc(C)c1S(=O)(=O)N1CCC(Cc2ccc(COc3ccncc3)cc2)CC1
17,829,Cc1ccc(CNC(=O)C2(C)CN(S(C)(=O)=O)CC(=O)N2c2cc(Cl)ccc2C)cc1 (centres undefined)
18,762,COc1ccc(-c2nnc(COc3ccc(NS(C)(=O)=O)cc3)o2)cc1
19,736,CC(C)(Oc1ccc(Cl)cc1)C(=O)NCC1(O)CCc2ccccc21 (centres undefined)
20,822,O=C(NC1CCCC1)N1CCc2nc(-c3ccccc3)ncc2C1
21,574,Cn1c(=O)c(C(=O)NC2CCN(Cc3ccccc3)CC2)nc2cccnc21
22,668,COCCn1c(CC2CCN(S(=O)(=O)c3ccc(OC)cc3)C2)nc2cccnc21 (centres undefined)
23,759,O=C1COc2ccc(S(=O)(=O)N3CCC(C(=O)Nc4ccccc4)CC3)cc2N1
24,1070,O=c1c2scc(-c3ccc(F)cc3)c2ncn1CCOc1ccccc1
25,798,O=S(=O)(c1cccnc1)N1CC(n2cc(COc3ccc(F)cc3)nn2)C1
26,654,Cc1c(Cl)cccc1S(=O)(=O)NCC1CCN(C(=O)c2cccn(C)c2=O)CC1
27,596,COC(=O)CNC(=O)Nc1ncc(-c2ccccc2)n1C
28,817,COC(=O)C1=CN(c2ccccc2)c2ccc(F)cc2S1(=O)=O
29,878,CCOc1ccc(S(=O)(=O)N2CCCC(C(=O)NCc3ccccc3)C2)cc1 (centres undefined)
